{
  "source": "patent US20130225611A1",
  "about": "“Compositions and Methods for Reducing Cancer Cell Proliferation and Modulating Importin-Beta Function” (THE REGENTS OF THE UNIVERSITY OF CALIFORNIA, priority 2011, published 2013)",
  "tested_on": "mitotic importin-β cargo release",
  "assay": "Rango-3 FRET sensor FLIM in mitotic HeLa cells",
  "format": "cell-based, human",
  "conditions": "DMSO controls 0.12+/−0.4 ns",
  "source_text": "A key feature of importazole, a cell-permeable importin-β/RanGTP inhibitor, is its ability to dissect novel roles of this pathway in dividing human cells, which also provide a system to analyze mitotic gradients of released cargos using FRET probes. If importazole disrupts the interaction of importin-β with RanGTP, then the chromatin-localized FRET gradient of the cargo probe Rango should be reduced, since it undergoes FRET when released from importin-β in HeLa cells. […] Thus, importazole impairs mitotic importin-β cargo release in HeLa cells.\nThe Rango-3 FRET sensor is an improved version of Rango and was created by replacing Cerulean-EYFP donor-acceptor pair in Rango with EGFP as a donor and non-fluorescent acceptor sREACh which was modified by the introduction of mild dimerization mutations. […] The emission was collected from a custom side port, filtered through a 525 nm bandpass filter (ET525/50 Chroma) and detected by a HPM-100-40 module (Becker & Hickl) containing a hybrid Hamamatsu R10467-40 GaAsP photomultiplier. Two to three days before the experiment, HeLa cells were transfected with a pSG8 plasmid containing the Rango-3 open reading frame (pK135) to induce sensor expression. […] Fluorescence lifetime images were produced and analyzed using SPCI software (Becker & Hickl).",
  "data": [
    {"compound": "CC(Nc1nc(N2CCCC2)nc2ccccc12)c1ccccc1", "note": "(stereo not shown) [importazole, (1-phenyl-ethyl)-(2-pyrrolidin-1-yl-quinazolin-4-yl)-amine]", "values": [
      {"measurement": "difference in fluorescence lifetime of Rango-3 donor GFP between chromosomes and distal cytoplasm", "value": "0.07+/−0.03 ns"}
    ]}
  ]
}
